According to patent US6136797A, “Phospholipid derivatives of phosphono-carboxylic acids, the production of said derivatives and the use of said derivatives as antiviral medicaments” (priority 1995, dated 2000):
In brackets after ≈: the same amount, converted by molar mass. Where a name gives a salt, the structure may show the parent alone.

Columns and labels:
[1] = tested on: bone marrow stem cells of the granulocytic/monocytic series; test: Bone marrow toxicity in vitro (CFU-GM assay); details: for toxicity on bone marrow stem cells of the granulocytic/monocytic series: in words, up to the highest tested concentration of 100 μg/ml
[2] = tested on: Murine Cytomegaly Virus (MCMV); test: Murine Cytomegaly Virus (MCMV) model, survival rate; assay type: in vivo, female Balb/c mice; details: 8×10^5 PFU i.p.; oral bioavailability model; drug dose not given
Method: Female Balb/c mice were treated i.p. with a dose of 8×10^5 PFU (plaque forming units).

bone marrow = details: AIDS patients; cited from earlier work
[3] = Stability (in the investigations and during production); assay type: physicochemical; details: in the investigations and during production / under the same conditions
[4] = tested on: HSV 1 and 2, influenza, HBV, VZV, EBV as well as retroviral infections; details: cited from earlier work
[5] = due to similarity to pyrophosphate by accumulation in bones; cited from earlier work

SMILES: CCCCCCCCCCCCSCC(COP(=O)(O)CC(=O)O)OCCCCCCCCCC (racemic) [DMDOP-PAA, R,S-(3-dodecylmercapto-2-decyloxy)-propoxy-hydroxy-phosphinyl acetic acid di-sodium salt]
- IC50 ([1]; Mus musculus, CFU-GM): > 100 µg/mL
- toxicity on bone marrow stem cells of the granulocytic/monocytic series [1]: no toxicity

SMILES: CCCCCCCCCCCCSCC(COP(=O)(O)C(=O)O)OCCCCCCCCCC (racemic) [DMDOP-PFA, R,S-(3-Dodecylmercapto-2-decyloxy)-propoxy-hydroxy-phosphinyl-formic acid di-sodium salt]
- survival rate of the animals (rank order) [2]: untreated<Foscarnet treated<DMDOP-PFA treated<DMDOP-PFA-OMe
- IC50 ([1]; Mus musculus, CFU-GM): > 100 µg/mL
- toxicity on bone marrow stem cells of the granulocytic/monocytic series [1]: no toxicity

SMILES: CCCCCCCCCCCCSCC(COP(=O)(O)C(=O)OC)OCCCCCCCCCC (racemic) [DMDOP-PFA-OMe, R,S-(3-dodecylmercapto-2-decyloxy)propoxy-hydroxy-phosphinylformic acid methyl ester]
- survival rate of the animals (rank order) [2]: untreated<Foscarnet treated<DMDOP-PFA treated<DMDOP-PFA-OMe

SMILES: Cc1cn([C@H]2C[C@H](N=[N+]=[N-])[C@@H](CO)O2)c(=O)[nH]c1=O [3'-azido-3'-deoxythymidine, 3'-Azido-3'-deoxythymidine]
- treated patients needing blood transfusions due to toxic side effects on the bone marrow (bone marrow): about 50%

SMILES: N.N.[Cl][Pt][Cl] [Cis-DDP (Cisplatin), Cisplatin]
- IC50 ([1]; CFU-GM assay, mean value±SEM, number of experiments in parentheses, highest tested concentration 100 μg/ml): 0.45 ± 0.11 µg/mL

SMILES: COc1cccc2c1C(=O)c1c(O)c3c(c(O)c1C2=O)C[C@@](O)(C(=O)CO)C[C@@H]3O[C@H]1C[C@H](N)[C@H](O)[C@H](C)O1 [Doxorubicin]
- IC50 ([1]; Mus musculus, CFU-GM): 0.046 ± 0.007 µg/mL (≈ 0.0846 µM)

SMILES: CCCCCCCCCCCCCCCCCCOCC(O)COP(=O)(O)C(=O)O (stereo not drawn) [OOHP-PFA, (3-octadecyloxy-2-hydroxy)-propoxy-hydroxy-phosphinylformic acid]
- IC50 ([1]; Mus musculus, CFU-GM): 94.5 µg/mL (≈ 209 µM)
- toxicity on bone marrow stem cells of the granulocytic/monocytic series [1]: more toxic than DMDOP-PFA and DMDOP-PAA

SMILES: CCCCCCCCCCCCCCCCCCOCC(O)COP(=O)(O)C(=O)OCC (stereo not drawn) [OOHP-PFAE, (3-octadecyloxy-2-hydroxy)-propoxy-hydroxy-phosphinylformic ethyl ester]
- IC50 ([1]; Mus musculus, CFU-GM): 59.4 µg/mL (≈ 123 µM)
- toxicity on bone marrow stem cells of the granulocytic/monocytic series [1]: more toxic than DMDOP-PFA and DMDOP-PAA

SMILES: CCCCCCCCCCCCCCCCCCOC[C@@H](O)COP(=O)(O)C(=O)O [batylphosphonoformate, 1-O-octadecyl-sn-glycero-3-phosphono-formate]
- stability [3]: unstable

SMILES: O=C(O)CP(=O)(O)O [phosphonoacetic acid]
- antiviral activity [4]: good antiviral activity
- IC50 ([1]; Mus musculus, CFU-GM): 62.9 µg/mL (≈ 449 µM)
- toxicity on bone marrow stem cells of the granulocytic/monocytic series [1]: more toxic than DMDOP-PFA and DMDOP-PAA
- toxicity [5]: toxic

SMILES: O=C(O)P(=O)(O)O [phosphonoformic acid]
- survival rate of the animals (rank order) [2]: untreated<Foscarnet treated<DMDOP-PFA treated<DMDOP-PFA-OMe
- IC50 ([1]; Mus musculus, CFU-GM): > 100 µg/mL
- toxicity [5]: toxic
